Where “and” joins values, the source holds several entries; their conditions need not be identical. Identical values can stand only once.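 Results reflect a 48-hour exposure of cells in 96-well plates to compound at five concentrations. At the GI50, growth is halved. TGI marks complete inhibition of growth.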

The values that follow come from PubChem BioAssay (NCI).

Assay in all cases: growth of human tumour cells (NCI), 48 h
Assay [1] has as its system OVCAR-3 ovarian.
Assay [2] deals with SR leukemia.
For assay [3], the system named is U251 CNS.
Assay [4] has as its system HT29 colon.
In assay [5] the test system is COLO 205 colon.
Assay [6] deals with HCT-15 colon.
Assay [7] concerns SK-MEL-2 melanoma.
Assay [8] deals with OVCAR-8 ovarian.
Assay [9] relates to UO-31 renal.
Assay [10] relates to HOP-92 NSCLC.
Assay [11] has as its system NCI/ADR-RES ovarian.
Assay [12] deals with K-562 leukemia.
Assay [13] relates to RXF 393 renal.

Turning to `Cc1c(-c2ccc(O)cc2)n(CCCCCCNCCOC(=O)NCCCc2ccc(N(CCCl)CCCl)cc2)c2ccc(O)cc12`, the TGI in [1] was 6.41 µM; in assay [2], 3.18 µM; in assay [3] it was 13.5 µM; in assay [4], 3.09 µM; in assay [5] it was 7.57 µM; in assay [6], 3.56 µM. Further, the TGI in [7] is 23.8 µM; in assay [8], 2.88 µM.

Take `CN(CC(=O)N1CC(CCl)c2ccc([N+](=O)[O-])cc21)CC(=O)N1CC(CCl)c2ccc([N+](=O)[O-])cc21` (stereo not given): the TGI in [9], in assay [10], in [11], in assay [1], in assay [3] and in [4] was more than 100 µM throughout. Also, the TGI in assay [12], in assay [5], in assay [6], in assay [7] and in assay [8] was more than 100 µM in each case.

Regarding `Cc1c2n(c(=O)[nH]c1=O)C1OC(CO)C(O2)C1N=[N+]=[N-]` (stereo not given), the TGI in [9], in [10], in assay [1], in assay [2], in [3] and in [4] was more than 100 µM throughout. Moreover, the TGI in assay [12], in assay [5], in assay [6], in assay [7] and in assay [8] was more than 100 µM in each case.

For the compound `COc1cc2c(c(OC)c1O)-c1ccc(SC)c(=O)cc1C(NC(C)=O)CC2` (stereo not given), the TGI in assay [9] was more than 100 µM; in [10], more than 100 µM; in [1], 0.0142 µM; in [2], more than 100 µM; in assay [3], more than 5.55 µM; in assay [4], more than 100 µM. In addition, the TGI was more than 100 µM in assay [12]; 0.0209 µM in assay [5]; more than 100 µM in [13]; more than 100 µM in assay [6]; more than 5.54 µM in assay [7]; more than 100 µM in assay [8].

For the compound `Cc1nnc2n1N=C(c1ccccc1)/C(=C/c1ccc(-c3ccc(Cl)cc3)o1)S2`, the TGI in assay [9] stood at 26.5 µM; in assay [10], 32.6 µM; in assay [1] it was 23.9 µM; in assay [2], 42.1 µM; in assay [3], 24.4 µM; in assay [4], 44.7 µM. Further, the TGI in assay [12] was determined as 47.4 µM; in assay [5], 41.5 µM; in assay [13], 26.7 µM; in assay [6], 31.3 µM; in [7], 27.5 µM.

Regarding `N/C(=N\N=C/c1ccc(O)c(O)c1O)NO`, the TGI in [9] was more than 100 µM; in [10] it was more than 100 µM; in assay [11] it was 40.3 µM; in assay [1], 51 µM; in assay [3], more than 83.6 µM; in assay [4] it was 35.1 µM. For the same compound, the TGI in [12] is 48 µM; in assay [5], 17.6 µM; in assay [13], 33.5 µM; in assay [6] it was 34.5 µM; in assay [7], more than 69.8 µM; in assay [8], more than 54.1 µM.

As to `Cc1ccc(-c2n[nH]c(Cc3nc(-c4ccc(C)cc4)n[nH]3)n2)cc1`, the TGI is more than 100 µM in assay [9]; more than 100 µM in assay [10]; more than 100 µM in assay [11]; more than 100 µM in [1]; 33.8 µM in [3]; more than 100 µM in [4]. Also, the TGI in assay [12], in assay [5], in assay [13], in assay [6], in assay [7] and in [8] was more than 100 µM in each case.

On to `C=C1C(=O)[C@@]23CC[C@H]4[C@@](C)(CCC[C@@]4(C)C(=O)OC)[C@@H]2CC[C@]1(O)C3`, for which the GI50 in assay [9] was 1.63 µM; in assay [10], 1.48 µM; in assay [3], 2.2 µM; in [4], 0.911 µM; in [12], 0.463 µM; in assay [13], 3.06 µM. Besides, the GI50 in assay [7] is 1.5 µM. Further, the TGI was 3 µM and 4.03 µM in [9]; 2.88 µM and 3.21 µM in assay [10]; 2.87 µM in assay [11]; 3.48 µM and 3.25 µM in assay [1]; 4.67 µM and 11.3 µM in assay [3]; 3.14 µM and 2.71 µM in assay [4]. Moreover, the TGI was 3.83 µM and 3.18 µM in assay [5]; 7.97 µM in assay [13]; 2.85 µM and 2.71 µM in assay [6]; 2.82 µM and 3.12 µM in assay [7]; 2.96 µM and 2.85 µM in [8].

Consider `S=c1nc2sc3c(c2c(Nc2ccc(Cl)cc2)[nH]1)CCCC3`, for which the TGI in assay [9], in assay [10], in assay [1], in assay [2], in [3] and in assay [4] was more than 100 µM each time. Further, the TGI in assay [12], in [5], in assay [13], in assay [6] and in assay [7] was more than 100 µM throughout.

`S=C1NCCN1`: the TGI in [9], in assay [10], in [1], in [2], in assay [3] and in [4] was more than 100 µM throughout. The TGI in [12], in assay [5], in [6], in assay [7] and in assay [8] was more than 100 µM each time.

For the compound `C[n+]1c2ccccc2c(NCC(=O)O)c2ccccc21`, the TGI in [9], in assay [1], in assay [2], in assay [3], in assay [4] and in assay [12] was more than 100 µM each time. For the same compound, the TGI in assay [5], in assay [13], in assay [6], in assay [7] and in assay [8] was more than 100 µM throughout.

Regarding `Cc1ccc2c(c1)[nH]c(=S)n2C=C(C(N)=O)C(N)=O`, the TGI in assay [9], in assay [10], in assay [11], in [1], in [3] and in assay [4] was more than 100 µM each time. The TGI in assay [5], in assay [13], in assay [6], in assay [7] and in assay [8] was more than 100 µM each time.

`O=C1N(Cl)C(=O)C(c2ccc(Cl)cc2)(c2ccc(Cl)cc2)N1Cl`: the TGI in assay [9], in [10], in assay [1], in [2], in assay [3] and in assay [4] was more than 100 µM in each case. Besides, the TGI in assay [12] is more than 100 µM; in assay [5] it was more than 100 µM; in assay [13], 84.8 µM; in [6], more than 100 µM; in assay [7] it was more than 100 µM; in [8], more than 100 µM.

With `CN1Cc2ccccc2S(=O)(=O)n2cccc2C1=O`, the TGI in assay [9], in assay [10], in [1], in assay [2], in [3] and in assay [12] was more than 100 µM throughout. The TGI in assay [5], in assay [13], in assay [6] and in assay [7] was more than 100 µM each time.

As for `CC1(C)CCc2ccc(OCCC(=O)O)cc2O1`, the TGI in [9], in [10], in assay [1], in assay [2], in assay [3] and in [4] was more than 100 µM each time. Besides, the TGI in [12], in assay [5], in [6], in assay [7] and in assay [8] was more than 100 µM throughout.

As for `c1ccc(C(C2=Nc3cccc4cccc(c34)N2)c2ccccc2)cc1`, the TGI in [9] stood at 51.2 µM; in assay [10] it was 44 µM; in assay [11], 50.5 µM; in [1], 41.5 µM; in assay [3], 35.3 µM; in assay [4], 60.1 µM. In addition, the TGI in assay [12] was 81.7 µM; in assay [5], 36.7 µM; in assay [13] it was 61.5 µM; in [6], 93.6 µM; in assay [7], 50 µM; in assay [8], more than 100 µM.

Turning to `C/C=C/C(C#N)(/C=C/c1ccccc1)OP1(=O)OC(c2ccccc2)C(C)N1C` (stereo not given), the TGI in [9] came to 32.6 µM; in assay [10], 31.6 µM; in assay [1], 35.5 µM; in assay [3], 32.8 µM; in assay [4] it was 44.7 µM; in assay [12], 39.3 µM. The TGI in assay [5] was 32.1 µM; in assay [13] it was 38.5 µM; in assay [7], 35.9 µM; in [8], 35.5 µM.

Consider `COc1c2c(cc3c1C(=O)c1c(O)cccc1C3=O)CC(O)CC2` (stereo not given), for which the TGI is more than 100 µM in assay [9]; 40.1 µM in assay [10]; more than 100 µM in assay [11]; more than 100 µM in assay [1]; more than 100 µM in assay [3]; more than 100 µM in assay [4]. The TGI in assay [12], in assay [5], in [6], in assay [7] and in assay [8] was more than 100 µM throughout.

Turning to `NC1c2c(Br)sc(N3CCCC3)c2C(=O)C1O` (stereo not given), the TGI in assay [9], in assay [10], in assay [11], in assay [1], in [3] and in [4] was more than 50 µM in each case. The TGI in assay [12], in assay [5], in assay [6], in assay [7] and in [8] was more than 50 µM throughout.

As to `COc1ccc2c(c1)CC[C@@H]1[C@@H]2CC[C@]2(C)C(=O)/C(=C/c3ccc(N(C)C)cc3)C[C@@H]12`, the TGI in assay [9] is more than 100 µM; in [10], 69 µM; in assay [11], more than 100 µM; in assay [1], 54.6 µM; in assay [3], more than 100 µM; in assay [5], more than 100 µM. Moreover, the results for the TGI in assay [13], in [6] and in assay [7] were 87.2 µM, more than 100 µM and 84.6 µM, respectively.

In the case of `O=[N+]([O-])c1cccc2nc3ccccc3c(NCCCCNc3c4ccccc4nc4cccc([N+](=O)[O-])c34)c12`, the TGI in assay [9] came to 0.398 µM; in assay [10], 0.0854 µM; in assay [11] it was 2.71 µM; in [1] it was 0.231 µM; in [3], 0.187 µM; in assay [4] it was 0.0366 µM. Further, the TGI is 0.173 µM in assay [5]; 0.117 µM in [13]; 1.02 µM in assay [6]; more than 100 µM in [7]; 1.09 µM in [8].

Take `O=C1NC(N/N=C/c2ccccc2)=N/C1=C\c1ccco1`: the TGI was 86 µM in assay [9]; 37.3 µM in [10]; more than 100 µM in assay [11]; more than 100 µM in assay [1]; 68.4 µM in assay [3]; more than 100 µM in assay [4]. Also, the TGI in assay [5] is more than 100 µM; in assay [13], 80.4 µM; in assay [6], more than 100 µM; in assay [7], more than 100 µM; in assay [8], 34.9 µM.

Turning to `NC(=O)c1ccc(C(=O)Nc2ccc([As](=O)(O)O)cc2)cc1`, the TGI in assay [9], in assay [10], in assay [11], in assay [1], in assay [3] and in assay [4] was more than 100 µM in each case. For the same compound, the TGI in assay [12], in [5], in assay [13], in assay [6], in assay [7] and in assay [8] was more than 100 µM throughout.

On to `C=C(C)[C@@H]1CCC2=C[C@@H](OC2=O)[C@@H](C(=C)C)C2=CC(C(=O)O)=C(C1)O2`, for which the TGI in assay [9], in assay [10], in assay [11], in assay [1], in assay [4] and in assay [12] was more than 100 µM throughout. For the same compound, the TGI in [5], in assay [13], in [6], in assay [7] and in assay [8] was more than 100 µM throughout.
